Some results are limits rather than exact numbers.

Chain of IRAK4 kinase (Q9NWZ3 whole entry): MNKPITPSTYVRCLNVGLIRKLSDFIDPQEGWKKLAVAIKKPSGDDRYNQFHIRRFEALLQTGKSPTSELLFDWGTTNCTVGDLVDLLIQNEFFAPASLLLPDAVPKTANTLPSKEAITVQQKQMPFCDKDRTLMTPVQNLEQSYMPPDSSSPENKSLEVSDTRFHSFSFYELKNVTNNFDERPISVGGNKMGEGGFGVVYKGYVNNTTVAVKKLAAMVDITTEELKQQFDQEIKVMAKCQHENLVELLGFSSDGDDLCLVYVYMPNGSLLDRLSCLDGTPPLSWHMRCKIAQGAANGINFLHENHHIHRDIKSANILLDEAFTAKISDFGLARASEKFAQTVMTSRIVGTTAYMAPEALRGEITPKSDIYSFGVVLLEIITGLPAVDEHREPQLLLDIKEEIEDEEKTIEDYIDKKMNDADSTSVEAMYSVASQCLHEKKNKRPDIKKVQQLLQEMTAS

One assay addresses IRAK4 kinase (Homo sapiens (Human), UniProt Q9NWZ3). Description: IRAK4 kinase activity inhibition assay (ADP-Glo). The assay is classed as biochemical. The conditions noted are these: 10 μM ATP, MBP substrate, 60 min at 25° C. On the procedure: IRAK4 kinase (purchased from Life Technologies, Cat. No.: PR5612U) was diluted to 2 folds of the final concentration (the final concentration is 0.76 ng/μL) with reaction buffer (40 mM Tris-HCl, pH 7.5; 20 mM MgCl2; 0.1 mg/mL BSA; 1 mM DTT), and added to a 384-well plate at 5 μL/well. The test drugs were 10-fold serial diluted from 10 μM to set six concentration points and added to the test wells of the 384-well plate at 2.5 μL/well. After incubation for 10 min at 25° C., 10 μM of ATP and […] of an enzyme reaction substrate, myelin basic protein MBP (purchased from SignalChem, Cat. No.: M42-51N) were added at 2.5 µL/well, and reacted at 25° C. for 60 minutes. After the reaction was completed, the kinase activity assay was performed using the ADP-Glo™ kinase assay kit (purchased from Promega, Cat. No.: V9102) according to the manufacture's instruction, i.e., 10 μL of ADP-Glo reaction reagent was first added and reacted at 25° C. for 40 minutes, 10 μL of the solution to be tested was taken and mixed with 10 μL of ADP-Glo detection reagent, and reacted at 25° C. for 30 minutes. The kinase activity was then detected, and the IC50 values of the test drugs were calculated.
(In general: In ADP-Glo the light output rises with the ADP produced.)
Consider `Cc1cc(Nc2nc(N[C@H]3CC[C@](C)(O)CC3)c3sccc3n2)sn1` [Compound 9], for which the IC50 (as a rule, the concentration that gives 50% inhibition) was not above 100 nM.

Turning to `C[C@]1(O)CC[C@H](Nc2nc(Nc3ccc(C(=O)NC4CCNCC4)cc3)nc3ccsc23)CC1` [Compound 66], the IC50 was 100 to 1000 nM.

Regarding `CNC1CCN(C(=O)c2ccc(Nc3nc(N[C@H]4CC[C@H](O)CC4)c4sccc4n3)cc2)CC1` [Compound 67], the IC50 fell in the range of 100 to 1000 nM.

With `CN(C)C1CCN(C(=O)c2ccc(Nc3nc(N[C@H]4CC[C@H](O)CC4)c4sccc4n3)cc2)CC1` [Compound 68], the IC50 is 100 to 1000 nM.

`O[C@H]1CC[C@H](Nc2nc(Nc3ccc(OC4CCOC4)cc3)nc3ccsc23)CC1` (stereo partly drawn) [Compound 69, trans-4-((2-((4-((tetrahydrofuran-3-yl)oxy)phenyl)amino)thieno[3,2-d]pyrimidin-4-yl)amino)cyclohexanol]: the IC50 was 100 to 1000 nM.

In turn, `CN1CCC(N(C)c2ccc(Nc3nc(N[C@H]4CC[C@H](O)CC4)c4sccc4n3)cc2)CC1` [Compound 70] registered an IC50 of 100 to 1000 nM.

Compound `C[C@]1(O)CC[C@H](Nc2nc(Nc3cccc(CC(N)=O)c3)nc3ccsc23)CC1` [Compound 72] came in with an IC50 of 1000 to 10000 nM.

The compound `CN1CCN(c2cccc(Nc3nc(N[C@H]4CC[C@](C)(O)CC4)c4sccc4n3)c2)CC1` [Compound 73] showed an IC50 of 100 to 1000 nM.

In turn, `CN1CCN(c2ccc(Nc3nc(N[C@H]4CC[C@](C)(O)CC4)c4sccc4n3)cc2)CC1` [Compound 74] came in with an IC50 of 1000 to 10000 nM.

With `CN1CCN(Cc2cc(Nc3nc(N[C@H]4CC[C@](C)(O)CC4)c4sccc4n3)sn2)CC1` [Compound 75], the IC50 lay within 1000 to 10000 nM.

In turn, `Cc1cc(Nc2nc(N[C@H]3CC[C@H](O)CC3)c3occc3n2)sn1` [Compound 76, trans-4-((2-((3-methylisothiazol-5-yl)amino)furo[3,2-d]pyrimidin-4-yl)amino)cyclohexanol] came in with an IC50 of 100 to 1000 nM.

`Cc1cc(Nc2nc(N[C@H]3C[C@H](N)C3)c3sccc3n2)sn1` [Compound 77, N^4-(trans-3-aminocyclobutyl)-N^2-(3-methylisothiazol-5-yl)thieno[3,2-d]pyrimidine-2,4-diamine] gave an IC50 not above 100 nM.

`Cc1cc(Nc2nc(N[C@H]3C[C@@H](N)C3)c3sccc3n2)sn1` [Compound 78]: the IC50 is not above 100 nM.

Take `Cc1cc(Nc2nc(N[C@H]3CC[C@@H](N)CC3)c3sccc3n2)sn1` [Compound 79]: the IC50 is not above 100 nM.

In turn, `Cc1cc(Nc2nc(N[C@H]3CC[C@H](N)CC3)c3sccc3n2)sn1` [Compound 80] returned an IC50 of 100 to 1000 nM.

Consider `Cc1cc(Nc2nc(O[C@H]3CC[C@@H](N)C3)c3sccc3n2)sn1` [Compound 81], for which the IC50 was in the range of 100 to 1000 nM.

The compound `Cc1cc(Nc2nc(O[C@H]3CC[C@@H](N)CC3)c3sccc3n2)sn1` [Compound 82] came in with an IC50 of 100 to 1000 nM.

In turn, `Cc1cc(Nc2nc(O[C@H]3CC[C@H](N)CC3)c3sccc3n2)sn1` [Compound 83] gave an IC50 not above 100 nM.

`Cn1cc(Nc2nc(N[C@H]3CC[C@@H](N)CC3)c3sccc3n2)cn1` [Compound 84] showed an IC50 of 100 to 1000 nM.

Take `Cn1cc(Nc2nc(O[C@H]3CC[C@@H](N)C3)c3sccc3n2)cn1` [Compound 85]: the IC50 is 100 to 1000 nM.

Compound `CN[C@H]1C[C@H](Nc2nc(Nc3cc(C)ns3)nc3ccsc23)C1` [Compound 86, N^4-(trans-3-(methylamino)cyclobutyl)-N^2-(3-methylisothiazol-5-yl)thieno[3,2-d]pyrimidine-2,4-diamine] came in with an IC50 of 100 to 1000 nM.

With `CN[C@H]1C[C@@H](Nc2nc(Nc3cc(C)ns3)nc3ccsc23)C1` [Compound 87], the IC50 is 100 to 1000 nM.

`CN[C@H]1CC[C@@H](Nc2nc(Nc3cc(C)ns3)nc3ccsc23)CC1` [Compound 88] registered an IC50 of 100 to 1000 nM.

`CN[C@H]1CC[C@H](Nc2nc(Nc3cc(C)ns3)nc3ccsc23)CC1` [Compound 89] gave an IC50 of 100 to 1000 nM.

With `CN[C@H]1CC[C@@H](Oc2nc(Nc3cc(C)ns3)nc3ccsc23)CC1` [Compound 90], the IC50 lay in the range of 100 to 1000 nM.

In turn, `Cc1cc(Nc2nc(N[C@H]3CC[C@H](N(C)C)CC3)c3sccc3n2)sn1` [Compound 91, N^4-(trans-4-(dimethylamino)cyclohexyl)-N^2-(3-methylisothiazol-5-yl)thieno[3,2-d]pyrimidine-2,4-diamine] gave an IC50 not above 100 nM.

The compound `Cc1cc(Nc2nc(N[C@H]3CC[C@@H](N(C)C)CC3)c3sccc3n2)sn1` [Compound 92] registered an IC50 of 100 to 1000 nM.

As for `CCN(CC)[C@H]1CC[C@@H](Nc2nc(Nc3cc(C)ns3)nc3ccsc23)CC1` [Compound 93], the IC50 fell in the range of 100 to 1000 nM.

Turning to `CCN(CC)[C@H]1CC[C@H](Nc2nc(Nc3cc(C)ns3)nc3ccsc23)CC1` [Compound 94], the IC50 is not above 100 nM.

In turn, `Cc1cc(Nc2nc(O[C@H]3CC[C@@H](N(C)C)CC3)c3sccc3n2)sn1` [Compound 95] had an IC50 not above 100 nM.

Take `Cc1cc(Nc2nc(O[C@H]3CC[C@H](N(C)C)CC3)c3sccc3n2)sn1` [Compound 96]: the IC50 is not above 100 nM.

`Cc1cc(Nc2nc(N[C@H]3CC[C@H](N(CCO)CCO)CC3)c3sccc3n2)sn1` [Compound 97]: the IC50 is not above 100 nM.

As to `Cc1cc(Nc2nc(N[C@H]3CC[C@H](N4CCCCC4)CC3)c3sccc3n2)sn1` [Compound 98, N^4-(trans-4-(piperidin-1-yl)cyclohexyl)-N^2-(3-methylisothiazol-5-yl)thieno[3,2-d]pyrimidine-2,4-diamine], the IC50 was not above 100 nM.

`Cc1cc(Nc2nc(N[C@H]3CC[C@H](N4CCCC4)CC3)c3sccc3n2)sn1` [Compound 99] returned an IC50 not above 100 nM.

Regarding `Cc1cc(Nc2nc(N[C@H]3CC[C@H](N4CCOCC4)CC3)c3sccc3n2)sn1` [Compound 100], the IC50 is not above 100 nM.

`Cc1cc(Nc2nc(O[C@H]3CC[C@H](N4CCCC4)CC3)c3sccc3n2)sn1` [Compound 101] displayed an IC50 not above 100 nM.

In turn, `Cc1cc(Nc2nc(O[C@H]3CC[C@H](N4CCCCC4)CC3)c3sccc3n2)sn1` [Compound 102] showed an IC50 not above 100 nM.

`Cc1cc(Nc2nc(O[C@H]3CC[C@H](N4CCOCC4)CC3)c3sccc3n2)sn1` [Compound 103] showed an IC50 of 100 to 1000 nM.

`Cc1cc(Nc2nc(N[C@H]3CC[C@H](O)CC3)c3c(ccn3C)n2)sn1` [Compound 104, trans-4-((5-methyl-2-((3-methylisothiazol-5-yl)amino)-5H-pyrrolo[3,2-d]pyrimidin-4-yl)amino)cyclohexanol] had an IC50 not above 100 nM.

For the compound `Cc1cc(Nc2nc(N[C@H]3CC[C@](C)(O)CC3)c3c(ccn3Cc3cccnc3)n2)sn1` [Compound 106], the IC50 was 100 to 1000 nM.

Consider `Cc1cc(Nc2nc(N[C@H]3CC[C@H](N4CCCCC4)CC3)c3c(ccn3CCCC#N)n2)sn1` [Compound 107], for which the IC50 is not above 100 nM.

Compound `Cc1cc(Nc2nc(N[C@H]3CC[C@H](N4CCCCC4)CC3)c3c(ccn3CCC(N)=O)n2)sn1` [Compound 108] gave an IC50 not above 100 nM.

The test system of a further assay is TMD-8 cells. Description: TMD-8 cell growth inhibition assay (CCK-8). Type of assay: cell-based. The settings on record: Homo sapiens, TMD8, 96 hours. Here is the method: The compounds of Examples 9, 98 and 105 of the invention were tested in TMD-8 cell growth inhibition assay. TMD-8 cells (available from Korea Hanmi Research Center) were cultured in RMPI-1640 medium (purchased from Gibco, Cat. No.: 22440) containing 10% fetal bovine serum (purchased from Gibco, Cat. No.: 10099-141). The TMD-8 cells in logarithmic growth phase were seeded in a 96-well plate at 20,000 cells/well/100 μL, and RMPI-1640 medium (100 μL) was added into blank control wells. The test samples were diluted with RMPI-1640 medium to 2 folds of the final concentration (10-fold dilutions starting from 10 μM, setting 6 drug concentrations, and testing in replicate wells at each concentration). The diluted test samples were added to test wells seeded with cells at 100 μL/well, and RMPI-1640 medium (100 μL) was separately added to the positive control wells and the blank control wells. The 96-well plate was placed in the incubator and reacted at 37° C., 5% CO2 for 96 hours. After the reaction was completed, the 96-well plate was taken from the incubator and to each well was added CCK-8 (100 μL) (purchased from DOJINDO, Cat. No.: CK04-11). Then the 96-well plate was put back to the incubator and incubated for another 2 hours. The light absorbance was measured at 450 nm, and the IC50 values were calculated therefrom.
Take `Cc1cc(Nc2nc(N[C@H]3CC[C@](C)(O)CC3)c3sccc3n2)sn1` [Compound 9]: the 50% inhibitory concentration (IC50) is not above 500 nM.

As to `Cc1cc(Nc2nc(N[C@H]3CC[C@H](N4CCCCC4)CC3)c3sccc3n2)sn1` [Compound 98, N^4-(trans-4-(piperidin-1-yl)cyclohexyl)-N^2-(3-methylisothiazol-5-yl)thieno[3,2-d]pyrimidine-2,4-diamine], the IC50 is not above 500 nM.

The next assay deals with TNF-α secretion in THP-1 cells. The assay can be described thus: LPS-induced TNF-α secretion assay in THP-1 cells (ELISA). Type of assay: cell-based. The settings on record: Homo sapiens; LPS-induced TNF-α secretion in THP-1 cells, 2 hours pre-incubation, 24 hours LPS. Here is the method: The compounds of Examples 9, 98 and 105 of the invention were tested in LPS-induced TNF-α secretion assay in THP-1 cells. Human THP-1 cells (purchased from ATCC, Cat. No.: TIB-202) were cultured in RPMI-1640 medium (purchased from Gibco, Cat. No.: 22440) containing 10% fetal bovine serum (purchased from Gibco, Cat. No.: 10099-141) and 0.05 mM of 2-mercaptoethanol (purchased from Gibco, Cat. No.: 21985). The THP-1 cells in logarithmic growth phase were seeded in a 96-well plate at 2×10^5 cells/well/100 μL. The test samples were diluted with RMPI-1640 medium to 4 folds of the final concentration (5-fold dilutions starting from 10 μM, setting 6 drug concentrations, and testing in replicate wells at each concentration). The diluted test samples were added to the test wells seeded with cells at 50 μL/well, and RMPI-1640 medium (50 μL) was separately added to positive control and negative control wells. The 96-well plate was placed in the incubator at 37° C., 5% CO2 and pre-incubated for 2 hours. The 96-well plate was taken out, and 400 ng/mL of LPS (50 μL) (purchased from Sigma, Cat. No.: L6529-1MG) was added to each well of the test wells and the positive control wells, and RMPI-1640 medium (50 μL) was added to the negative control wells. After incubation in the incubator at 37° C., 5% CO2 for 24 hours, the cell culture supernatant was taken and determined for the content of TNF-α in the supernatant using a human TNF-α ELISA kit (purchased from DKW, Cat. No.: 12-1720-096).
(In general: An ELISA detects its analyte on a solid surface through an enzyme-linked reagent.)
As to `Cc1cc(Nc2nc(N[C@H]3CC[C@](C)(O)CC3)c3sccc3n2)sn1` [Compound 9], the IC50 was not above 500 nM.

For the compound `Cc1cc(Nc2nc(N[C@H]3CC[C@H](N4CCCCC4)CC3)c3sccc3n2)sn1` [Compound 98, N^4-(trans-4-(piperidin-1-yl)cyclohexyl)-N^2-(3-methylisothiazol-5-yl)thieno[3,2-d]pyrimidine-2,4-diamine], the IC50 is not above 500 nM.
